Tests used:
Beta-lactamase TEM = Beta-lactamase TEM (Escherichia coli, UniProt P62593); assay: In vitro inhibitory activity against Class A (TEM-1) beta-Lactamases
Beta-lactamase = Beta-lactamase (Escherichia coli K-12, UniProt P00811)
Description: In vitro inhibitory activity against Class C (Amp-C) beta-Lactamases

[1] = target: Metallo-beta-lactamase type 2 (Bacteroides fragilis, UniProt P25910); assay: In vitro inhibitory activity against Class B (CCRA) beta-Lactamases
IMI-1 = IMI-1 (Enterobacter cloacae, UniProt Q46991); assay: In vitro inhibitory activity against Class A (Imi-1) beta-Lactamases
Chain of IMI-1 (Q46991 whole entry): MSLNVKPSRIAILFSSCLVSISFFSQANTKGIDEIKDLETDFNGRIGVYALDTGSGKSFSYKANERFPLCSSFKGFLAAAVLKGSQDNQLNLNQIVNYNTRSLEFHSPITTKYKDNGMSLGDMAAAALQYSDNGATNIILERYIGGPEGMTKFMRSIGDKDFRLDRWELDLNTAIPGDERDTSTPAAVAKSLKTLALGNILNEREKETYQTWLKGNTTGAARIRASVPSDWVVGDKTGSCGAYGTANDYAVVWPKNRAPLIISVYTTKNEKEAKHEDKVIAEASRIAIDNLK

Chain of Beta-lactamase (P00811 whole entry): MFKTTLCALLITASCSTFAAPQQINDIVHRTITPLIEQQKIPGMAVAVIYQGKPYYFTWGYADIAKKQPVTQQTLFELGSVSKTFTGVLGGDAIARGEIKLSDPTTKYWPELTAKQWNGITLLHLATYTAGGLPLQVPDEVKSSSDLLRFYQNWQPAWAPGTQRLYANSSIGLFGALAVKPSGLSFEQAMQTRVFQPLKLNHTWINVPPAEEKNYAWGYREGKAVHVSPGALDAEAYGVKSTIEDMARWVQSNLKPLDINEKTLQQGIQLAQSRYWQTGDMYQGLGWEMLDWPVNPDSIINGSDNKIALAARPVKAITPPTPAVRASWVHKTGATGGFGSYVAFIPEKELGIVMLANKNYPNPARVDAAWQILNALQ
Chain of Beta-lactamase TEM (P62593 whole entry): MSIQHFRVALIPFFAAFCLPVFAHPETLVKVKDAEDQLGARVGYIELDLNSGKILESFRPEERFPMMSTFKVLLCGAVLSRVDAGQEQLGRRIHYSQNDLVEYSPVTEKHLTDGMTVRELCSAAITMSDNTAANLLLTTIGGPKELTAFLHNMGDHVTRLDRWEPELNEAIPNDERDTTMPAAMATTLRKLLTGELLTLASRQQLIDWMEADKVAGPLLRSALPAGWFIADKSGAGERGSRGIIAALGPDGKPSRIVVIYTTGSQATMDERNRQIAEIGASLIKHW
Chain of Metallo-beta-lactamase type 2 (P25910 whole entry): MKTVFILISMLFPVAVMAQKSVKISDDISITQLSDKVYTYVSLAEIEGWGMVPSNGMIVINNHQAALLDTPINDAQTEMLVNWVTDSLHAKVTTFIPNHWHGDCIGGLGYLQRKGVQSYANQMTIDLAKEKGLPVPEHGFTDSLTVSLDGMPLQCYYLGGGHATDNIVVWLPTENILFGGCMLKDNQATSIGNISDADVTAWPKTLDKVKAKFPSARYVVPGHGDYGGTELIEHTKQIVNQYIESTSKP

Row | SMILES | IC50 (Beta-lactamase TEM) [nM] | IC50 (Beta-lactamase) [nM] | IC50 [1] [nM] | IC50 (IMI-1) [nM]
1 | O=C(O)C1=CS[C@@H]2/C(=C\c3cnc4n3CCNC4)C(=O)N12 | 5 | 6 | 320 | 28
2 | O=C(O)C1=CS[C@@H]2/C(=C\c3cc4n(n3)CCC4)C(=O)N12 | 1 | 2 |  | 
3 | O=C(O)C1=CS[C@@H]2/C(=C\c3cn4c5c(sc4n3)CCC5)C(=O)N12 | 1 | 2 |  | 
4 | O=C(O)C1=CS[C@@H]2/C(=C\c3cnc4n3CCOC4)C(=O)N12 | 0.4 | 5 | 66 | 8

Reference: ChEMBL document CHEMBL1149192, “Mechanism of inactivation of beta-lactamases by novel 6-methylidene penems elucidated using electrospray ionization mass spectrometry” (J Med Chem, 2004)
